# Data: patent US5830994A, “Peptide derivatives of alpha-MSH and their application” (Institut Europeen De Biologie Cellulaire, priority 1993, dated 1998)
# “And” between values parts separate entries of the source, which are not always exact repeats. Equal entries are not always repeated. Where two headings read alike, the source gives them in different places.
# How the values were obtained:
# [1] = Protection of treated animals given a lethal dose of LPS; assay type: in vivo, mice
# [2] = test system: embryonic cells (melanoblasts, neuroblasts, myoblasts, epidermal cells, fibroblasts, mesenchymatous cells); assay type: cell-based, Triton embryo and Axolotl embryo
# Protocol: Qualitative and quantitative analysis of the effects of PIV on melanocyte differentiation in in vitro culture. Sample to be analyzed--compound 4=PIV Embryonic cells isolated in in vitro culture in a defined, purely saline medium (standard culture conditions: 2 ml of medium/culture). The embryonic territory is collected (from Triton embryo and from Axolotl embryo) from the first stage of melanogenesis, immediately after melanocyte induction. At this early stage of embryonic development, the neural swelling, which has just become individualized, contains all the melanoblastic precursors. The culture of the cells of the neural swelling and of the underlying mesoderm makes it possible to coculture (under completely identical conditions) the melanoblasts with various other cell precursors belonging to various categories: neuroblasts, myoblasts, epidermal cells, fibroplasts [sic], mesenchymatous cells. This allows a comparative kinetic study, on a living material, of the effects of PIV on the melanocytes and various other cell types. Duration of the culture (primary culture): 2 to 3 weeks at 20° C. The cell differentiation appears morphologically from the 3rd day and is practically complete at 8-10 days of culture. A series of PIV concentrations was analyzed: 0.01 μg/ml; 0.1 μg/ml; 1 μg/ml; and 10 μg/ml The following 2 doses were therefore selected for this work: 0.1 and 1 μg/ml. 1 single treatment during the innoculation of cultured cells. After their attachment (3 days at 20° C.), the medium is replaced with fresh medium without the Peptide PIV 1 treatment during the innoculation and a 2nd treatment during the change of medium. We developed two melanin assays: by HPLC with electrochemical detection by spectrophotometry (by adaptation of the method of TOMITA et al. 1990) at 470 nm. The development of these assays was carried out using standard solutions of melanin (Sigma, ref. M 8631) in order to define the comparative sensitivity and the minimum level of detection by either of the methods. The μg is the minimum level which can be assayed by spectrophotometry; the ng is the lower level which can be assayed by HPLC. It should however, be observed that these two techniques, especially the spectrophotometric assay, can be used since, for our cell cultures, 15 embryonic explants associated in culture are sufficient to allow quantification (by spectrophotometry).
substance,measurement,setting,value
[(DL) Lip] His - D.homoPhe - Arg - Trp - NH2 [PIV],Protection of treated animals (mortality),[1],highly significant retarded mortality rate
same,"cell proliferation of epidermis cells, mesenchymatous cells, fibroblasts (in words)",[2],no specific cell proliferation
same,"cytotoxic effect on epidermis cells, mesenchymatous cells, fibroblasts (in words)",[2],no cytotoxic effect
same,"differentiation and behaviour in vitro of epidermis cells, mesenchymatous cells, fibroblasts (in words)",[2],no retardation or accelaration
same,"number of neurons and size of the cell bodies, neuroblasts (in words)",[2],no specific stimulating effect
same,"size and spreading of epidermis cells, mesenchymatous cells, fibroblasts (in words)",[2],no stimulating effect
same,"effect on melanocyte differentiation, dose/response trial (in words)",[2]; 0.01 μg/ml,no effect
same,"effect on melanocyte differentiation, dose/response trial (in words)",[2]; 1 μg/ml,optimal effect
same,effect on melanogenesis (in words),[2]; 0.1 and 1 μg/ml,Stimulating effect
same,"Stimulation (melanin, treated vs control cultures)",[2]; 1st to 4th experiment,2.5 × and 2.3 × and 1.5 ×
same,appearance of phenotypic differentiation of the melanocytes (in words),"[2]; treated cultures, from the 2nd day after innoculation, vs control cultures",more rapidly
same,number of melanocytes (in words),[2]; treated vs control cultures,increase
